What was measured:
U937 cells = assay: Production of VEGF in supernatant of U937 culture; assay type: cell-based, human; conditions: FIG. 2
Method: The inhibitory action of […] on the production of VEGF in the supernatant of U937 in culture was also evaluated.

mice = assay: COPD: chronic smoke exposure (6 months), lung morphometry and histology; assay type: in vivo, mouse; conditions: smoke 6 months, 4 mg/kg i.p. before daily exposure
Method: The activity of […] was also tested in a model of chronic exposure, which is closer to the aetiology of the human disorder. The mice were exposed to the smoke of 3 cigarettes a day or air for 5 days a week for 6 months, and were treated 30 minutes before the daily exposure with […] 4 mg/kg i.p.
At the end of the 6 months, the mice were sacrificed and a morphometric and histologic examination was conducted on the lung tissue.
The mean interalveolar distance (Lm) and mean internal surface area of the lung (ISA) were measured, being parameters that are correlated with degeneration of lung tissue and with the resultant decrease in respiratory function.

Swiss CD1 mice = assay: CFA thermal hyperalgesia, synergy with opioids
Method: We compared the activity of […] with that of the opioids to study its analgesic effect.
Mice of the Swiss CD1 type were given a single intraplantar injection of 30 microlitres of complete Freund adjuvant (CFA) in the right plantar pad. Intraperitoneal injection of […] and/or of morphine (morphine chlorhydrate, Molteni) was administered 24 hours after injection of CFA according to the following scheme:
1. […] 7.5 mg/kg; 2. […] 10 mg/kg; 3. […] 200 mg/kg; 4. […] 50 mg/kg; 5. Morphine 0.4 mg/kg; 6. Morphine 2.5 mg/kg; 7. Morphine 1 mg/kg; 8. Morphine 0.4 mg/kg; 9. Morphine 1 mg/kg+[…] 10 mg/kg; 10. Morphine 0.4 mg/kg+[…] 10 mg/kg; 11. Morphine 1 mg/kg+[…] 10 mg/kg; 12. Morphine 0.4 mg/kg+[…] 10 mg/kg; 13. Morphine 4 mg/kg.
Groups 9-11 and 10-12 have the same doses respectively; they were repeated to confirm the results.
Thermal hyperalgesia was assessed using the Ugo Basile apparatus (Comerio, Italy).
The test was carried out before (baseline values) injection of CFA, after injection of CFA and 0.5, 1, 2, 3, 6 and 12 hours after injecting the drug in the inflamed pad.

C57/Bl/6 mice = assay: COPD: acute cigarette smoke exposure, BALF; assay type: in vivo, mouse; conditions: 6 mg/kg intratracheal; FIG. 39
Method: C57/Bl/6 mice aged 6-8 weeks were exposed to room air or to the smoke of 5 cigarettes/day (Virginia brand with filter; tar 12 mg and nicotine 0.9 mg) for 3 consecutive days. For exposure to smoke, a special cage was used, which permits air exchange with the exterior or with the device that contains the cigarette only due to a mechanical fan, which also allows the smoke to be diluted with the external air (1:8) in order to simulate the situation of a smoker.
Starting on the fourth day, the mice were anaesthetized 30 minutes before exposure to the smoke and were administered 6 mg/kg of […] or vehicle by intratracheal injection. The mice were sacrificed one hour after the end of the treatment and a bronchoalveolar lavage was carried out.

[1] = test system: mice with the R117H CFTR(CF) mutation and wild-type (WT) mice; assay: Cystic fibrosis: intratracheal LPS in R117H CFTR and WT mice; assay type: in vivo, mouse
Method: For the experiments, 32 mice were used with the R117H CFTR(CF) mutation, responsible for the onset of the inflammatory disorder, and 18 wild-type (WT) mice with a genetic background of the C57BL/6 type.
The trachea was then intubated with a MicroSprayer (PennCentury), capable of vaporizing the drug as aerosol at a concentration of 25 μl of […] 300 μM or of vehicle. The mice were weighed daily.
On day 4, all the mice received the inflammatory stimulus (1 μg of LPS) together with […] or vehicle; separate experiments were conducted, inducing only the inflammatory stimulus in the mice. About 24 hours after administration of LPS, the mice were sacrificed and samples of BALF were collected, from which the cellular component was isolated, and was analysed under the microscope for characterizing its leukocyte phenotype.

female NOD mice = assay: Type 1 diabetes spontaneous model; assay type: in vivo, mouse; conditions: 0.25 mg intravenously 5 days every two weeks from 11 weeks of age; at the 28th week; carriers 7 out of 14
Excerpt: NOD (“non-obese diabetic”) mice represent the spontaneous murine model of type 1 diabetes (Adorini et al., 2002). The loss of metabolic control characterized by hyperglycaemia and glycosuria, which defines the disease clinically, is preceded by a long phase called pre-diabetes, during which the response to specific autoantigens of the beta cells of the pancreas develops subclinically, but progressively. In the NOD mice, the disease begins clinically around the 14th week of age when the infiltrating inflammatory cells invade the islets and develop an aggressive insulitis, which leads to destruction of the beta cells and causes hyperglycaemia (Anderson and Bluestone, 2005). The autoreactive CD4+ and CD8+ T cells play a fundamental role in the pathogenesis of type 1 diabetes.
We treated female NOD mice at 11 weeks of age with 0.25 mg […] or carriers intravenously for 5 days every two weeks and monitored glycaemia every week. Only one out of 8 mice treated with […] developed diabetes at the 28th week of age, whereas 7 out of 14 mice treated with carriers developed diabetes or died starting from the 14th week of age (FIG. 32).

C=C(C=O)OC(C=O)n1cnc2c(N)ncnc21 (centres unmarked) [2-[1-(6-aminopurin-9-yl)-2-oxoethoxy]prop-2-enal]
cellular production of VEGF (U937 cells): reduced the cellular production of VEGF significantly | ISA (mean internal surface area of the lung) (mice): 1153 ± 59 cm^2 | Lm (mean interalveolar distance) (mice): 36.3 ± 1.1 μm | values of nociception (thermal hyperalgesia) (Swiss CD1 mice; IMMUFLAM alone i.p., all the doses tested): brings back the values of nociception to the baseline values | obsessive-compulsive disorders (behaviour) (Swiss CD1 mice; mice treated with IMMUFLAM alone): did not display any behaviour of this kind | immune cells and messengers of inflammation in BALF (C57/Bl/6 mice): slight finding of immune cells and of messengers of inflammation | reduction in concentrations of IL-1β, IL-6, TNFα and the murine analogue of IL-8 in BAL ([1]; CF and WT mice, FIGS. 42B and C): 56%-83% | decrease in neutrophil percentage relative to vehicle ([1]; CF mice, intratracheal LPS, 25 μl of 300 μM aerosol, p<0.001, FIG. 42A): 60% | decrease in the percentage of neutrophils ([1]; WT mice, intratracheal LPS, compared to 89% for vehicle, p<0.01): 47% | body weight ([1]; within first 24 hours, vehicle lost 4-8%, FIG. 41): no change in their body weight | mice that developed diabetes (female NOD mice): one out of 8

From US20160129005A1, “ADENINE DERIVATIVES HAVING IMMUNOMODULATING ANTI-INFLAMMATORY AND ANALGESIC ACTIVITY” (MEDESTEA RESEARCH & PRODUCTION S.p.A., priority 2011, published 2016)
